Holding throughout (type): functional, cell-based
One test has as its system UMSCC22B. Description: In vitro cytotoxicity causing 50% growth inhibition was determined against 22B (human head and neck squamous) cell line.
A further test deals with H322. Description: In vitro cytotoxicity causing 50% growth inhibition was determined against H322 (human non small cell lung cancer) cells. As to conditions: NCI-H322.
For test [1], the system named is Lewis lung carcinoma cell line. In words: In vitro cytotoxicity causing 50% growth inhibition was determined against LL (murine non small cell lung cancer) cell line. The following applies: Mus musculus.
The next test deals with WiDr. In words: In vitro cytotoxicity causing 50% growth inhibition was determined against WiDr (human colon carcinoma) cell line.
For another test, the system named is Colon 26. In words: In vitro cytotoxicity causing 50% growth inhibition was determined against C26-10 (murine colon carcinoma) cell line. The following applies: Mus musculus.
The next test deals with A2780. Description: In vitro cytotoxicity causing 50% growth inhibition was determined against […] (human ovarian cancer)cell line.

The IC50 is the midpoint of a concentration-inhibition curve.

Take `CCCCCCCCCCCCCCC(CCOS(C)(=O)=O)COS(C)(=O)=O` (stereo not drawn): the IC50 in the test on UMSCC22B amounted to 26.4 µM; with H322, 25.1 µM; in test [1], 20.8 µM; in the test on WiDr it was 24.9 µM; in the test on Colon 26 it was 26.3 µM; in the test on A2780, 25.9 µM.

Take `CCCCCCCCCCCCCCC(COS(C)(=O)=O)OS(C)(=O)=O` (stereo not drawn): the half-maximal inhibitory concentration (IC50) with UMSCC22B is 46.5 µM; with H322 it was 59.7 µM; in test [1], 28.4 µM; in the test on WiDr, 25.6 µM; with Colon 26, 31 µM; with A2780, 45.5 µM.

Take `CS(=O)(=O)OCCCCOS(C)(=O)=O` [BUSULFAN]: the IC50 in the test on UMSCC22B was above 100 µM; in the test with H322 it was above 100 µM; in test [1] it was above 100 µM; with WiDr it was above 100 µM; in the test with Colon 26, 92.5 µM; with A2780, above 100 µM.

The values above are taken from ChEMBL document CHEMBL1134004, “Synthesis and in vitro cytotoxicity of novel long chain busulphan analogues” (Bioorg Med Chem Lett, 2001).
